The compounds below were run against HIV protease (Human immunodeficiency virus type 1 group M subtype B, UniProt P04585) (assay: biochemical).

Compared with `COc1ccc(CC(=O)N[C@@H](Cc2cccc3ccccc23)C(=O)NCCC[C@@H](CO)N(CC(C)C)S(=O)(=O)c2ccc(N)cc2)cc1` [Example 5, (2S,4S)-N-{4-[(4-Amino-benzenesulfonyl)-isobutyl-amino]-5-hydroxy-pentyl}-2-[2-(4-methoxy-phenyl)-acetylamino]-3-naphthalen-1-yl-propionamide], `COCC(=O)N[C@@H](Cc1cccc2ccccc12)C(=O)NCCC[C@@H](CO)N(CC(C)C)S(=O)(=O)c1ccc(N)cc1` [Example 19, (2S,4S)-N-{4-[(4-Amino-benzenesulfonyl)-isobutyl-amino]-5-hydroxy-pentyl}-2-(2-methoxy-acetylamino)-3-naphthalen-1-yl-propionamide] is 4.2-fold lower in Ki: 11 nM for the first, 2.6 nM for the second.

Compared with `COC(=O)N[C@@H](Cc1ccccc1-c1ccc(OC)cc1)C(=O)NCCC[C@@H](CO)N(CC(C)C)S(=O)(=O)c1ccc(N)cc1` [Example 6, (1S,4S)-[1-{4-[(4-Amino-benzenesulfonyl)-isobutyl-amino]-5-hydroxy-pentylcarbamoyl}-2-(4′-methoxy-biphenyl-2-yl)-ethyl]-carbamic Acid Methyl Ester], `COC(=O)N[C@@H](Cc1cccc2ccccc12)C(=O)NCCCC[C@@H](CO)N(CC(C)C)S(=O)(=O)c1ccc(N)cc1` [Example 28, (1S,5S)-(1-{5-[(4-Amino-benzenesulfonyl)-isobutyl-amino]-6-hydroxy-hexylcarbamoyl}-2-naphthalen-1-yl-ethyl)-carbamic Acid Methyl Ester] is 11-fold lower in Ki: 13 nM for the first, 1.2 nM for the second. The second binds more tightly here.

`CC(C)CN([C@H](CO)CCCNC(=O)[C@H](Cc1cccc2ccccc12)NC(=O)OCC(F)(F)F)S(=O)(=O)c1ccc(N)cc1` [Example 7, (1S,4S)-(1-{4-[(4-Amino-benzenesulfonyl)-isobutyl-amino]-5-hydroxy-pentylcarbamoyl}-2-naphthalen-1-yl-ethyl)-carbamic Acid 2,2,2-Trifluoro-ethyl Ester] and `CCOC(=O)N[C@@H](Cc1cccc2ccccc12)C(=O)NCCC[C@@H](CO)N(CC(C)C)S(=O)(=O)c1ccc(N)cc1` [Example 18, (1S,4S)-(1-{4-[(4-Amino-benzenesulfonyl)-isobutyl-amino]-5-hydroxy-pentylcarbamoyl}-2-naphthalen-1-yl-ethyl)-carbamic Acid Ethyl Ester] are within 1.5-fold of each other in Ki: 4 nM for the first, 3.9 nM for the second.

First: CC(C)CN([C@H](CO)CCCNC(=O)[C@@H](N)Cc1cccc2ccccc12)S(=O)(=O)c1ccc(N)cc1 [Example 8, (2S,4S)-2-Amino-N-{4-[(4-amino-benzenesulfonyl)-isobutyl-amino]-5-hydroxy-pentyl}-3-naphthalen-1-yl-propionamide]
Second: CCN[C@@H](Cc1cccc2ccccc12)C(=O)NCCC[C@@H](CO)N(CC(C)C)S(=O)(=O)c1ccc(N)cc1 [Example 26, (2S,4S)-N-{4-[(4-Amino-benzenesulfonyl)-isobutyl-amino]-5-hydroxy-pentyl}-2-ethylamino-3-naphthalen-1-yl-propionamide]
The Ki of the first is 1.9-fold lower: 1.6 nM for the first, 3 nM for the second. The first binds more tightly here.

`CC(C)CN([C@H](CO)CCCNC(=O)[C@H](Cc1cccc2ccccc12)NC(=O)C1CCCCC1)S(=O)(=O)c1ccc(N)cc1` [Example 13, (1S,4S)-Cyclohexanecarboxylic Acid (1-{4-[(4-Amino-benzenesulfonyl)-isobutyl-amino]-5-hydroxy-pentylcarbamoyl}-2-naphthalen-1-yl-ethyl)-amide] and `CC(C)CN([C@H](CO)CCCNC(=O)[C@H](Cc1cccc2ccccc12)NC(=O)C1CCCC1)S(=O)(=O)c1ccc(N)cc1` [Example 23, (1S,4S)-Cyclopentanecarboxylic Acid (1-{4-[(4-Amino-benzenesulfonyl)-isobutyl-amino]-5-hydroxy-pentylcarbamoyl}-2-naphthalen-1-yl-ethyl)-amide] are within 1.5-fold of each other in Ki: 2.3 nM for the first, 2 nM for the second.

`CC(C)CN([C@H](CO)CCCNC(=O)[C@@H](N)Cc1ccccc1-c1ccccc1)S(=O)(=O)c1ccc(N)cc1` [Example 14, (2S,4S)-2-Amino-N-{4-[(4-amino-benzenesulfonyl)-isobutyl-amino]-5-hydroxy-pentyl}-3-biphenyl-2-yl-propionamide] and `CC(C)CN([C@H](CO)CCCNC(=O)[C@@H](N)C(c1ccccc1)c1ccccc1)S(=O)(=O)c1ccc(N)cc1` [Example 24, (2S,4S)-2-Amino-N-{4-[(4-amino-benzenesulfonyl)-isobutyl-amino]-5-hydroxy-pentyl}-3,3-diphenyl-propionamide] are within 1.5-fold of each other in Ki: 7.1 nM for the first, 7.5 nM for the second.

Compared with `COC(=O)CN[C@@H](Cc1cccc2ccccc12)C(=O)NCCC[C@@H](CO)N(CC(C)C)S(=O)(=O)c1ccc(N)cc1` [Example 15, (1S,4S)-(1-{4-[(4-Amino-benzenesulfonyl)-isobutyl-amino]-5-hydroxy-pentylcarbamoyl}-2-naphthalen-1-yl-ethylamino)-acetic Acid Methyl Ester], `CC(C)CN([C@H](CO)CCCNC(=O)[C@H](Cc1cccc2ccccc12)NCC(=O)O)S(=O)(=O)c1ccc(N)cc1` [Example 27, (1S,4S)-(1-{4-[(4-Amino-benzenesulfonyl)-isobutyl-amino]-5-hydroxy-pentylcarbamoyl}-2-naphthalen-1-yl-ethylamino)-acetic Acid] is 1.7-fold lower in Ki: 4.2 nM for the first, 2.5 nM for the second.

Compared with `CC(C)CN([C@H](CO)CCCNC(=O)[C@@H](NC(=O)OC(C)(C)C)C(c1ccccc1)c1ccccc1)S(=O)(=O)c1ccc(N)cc1` [Example 16, (1S,4S)-(1-{4-[(4-Amino-benzenesulfonyl)-isobutyl-amino]-5-hydroxy-pentylcarbamoyl}-2,2-diphenyl-ethyl)-carbamic Acid tert-Butyl Ester], `CC(C)CN([C@H](CO)CCCCNC(=O)[C@H](Cc1ccc(-c2ccccc2)cc1)NC(=O)OC(C)(C)C)S(=O)(=O)c1ccc(N)cc1` [Example 59, (1S,5S)-(1-{5-[(4-Amino-benzenesulfonyl)-isobutyl-amino]-6-hydroxy-hexylcarbamoyl}-2-biphenyl-4-yl-ethyl)-carbamic Acid tert-Butyl Ester] is 1.6-fold lower in Ki: 9.3 nM for the first, 6 nM for the second. The second binds more tightly here.

`COCCOC(=O)N[C@@H](Cc1cccc2ccccc12)C(=O)NCCC[C@@H](CO)N(CC(C)C)S(=O)(=O)c1ccc(N)cc1` [Example 17, (1S,4S)-(1-{4-[(4-Amino-benzenesulfonyl)-isobutyl-amino]-5-hydroxy-pentylcarbamoyl}-2-naphthalen-1-yl-ethyl)-carbamic Acid 2-Methoxy-ethyl Ester] and `CC(=O)OCCN[C@@H](Cc1cccc2ccccc12)C(=O)NCCC[C@@H](CO)N(CC(C)C)S(=O)(=O)c1ccc(N)cc1` [Example 21, (1S,4S)-Acetic Acid 2-(1-{4-[(4-Amino-benzenesulfonyl)-isobutyl-amino]-5-hydroxy-pentylcarbamoyl}-2-naphthalen-1-yl-ethylamino)-ethyl Ester] are within 1.5-fold of each other in Ki: 3.7 nM for the first, 3.9 nM for the second.

Compared with `CCCCN[C@@H](Cc1cccc2ccccc12)C(=O)NCCC[C@@H](CO)N(CC(C)C)S(=O)(=O)c1ccc(N)cc1` [Example 20, (2S,4S)-N-{4-[(4-Amino-benzenesulfonyl)-isobutyl-amino]-5-hydroxy-pentyl}-2-butylamino-3-naphthalen-1-yl-propionamide], `CCCN[C@@H](Cc1cccc2ccccc12)C(=O)NCCC[C@@H](CO)N(CC(C)C)S(=O)(=O)c1ccc(N)cc1` [Example 22, (2S,4S)-N-{4-[(4-Amino-benzenesulfonyl)-isobutyl-amino]-5-hydroxy-pentyl}-3-naphthalen-1-yl-2-propylamino-propionamide] is 1.8-fold lower in Ki: 4.4 nM for the first, 2.5 nM for the second. The second binds more tightly here.

`CC(C)CN[C@@H](Cc1cccc2ccccc12)C(=O)NCCC[C@@H](CO)N(CC(C)C)S(=O)(=O)c1ccc(N)cc1` [Example 25, (2S,4S)-N-{4-[(4-Amino-benzenesulfonyl)-isobutyl-amino]-5-hydroxy-pentyl}-2-isobutylamino-3-naphthalen-1-yl-propionamide] and `CC(C)CN[C@@H](Cc1ccc2ccccc2c1)C(=O)NCCCC[C@@H](CO)N(CC(C)C)S(=O)(=O)c1ccc(N)cc1` [Example 63, (2S,5S)-N-{5-[(4-Amino-benzenesulfonyl)-isobutyl-amino]-6-hydroxy-hexyl}-2-isobutylamino-3-naphthalen-2-yl-propionamide] are within 1.5-fold of each other in Ki: 3.7 nM for the first, 3.9 nM for the second.

Compared with `COC(=O)N[C@@H](Cc1ccc2ccccc2c1)C(=O)NCCCC[C@@H](CO)N(CC(C)C)S(=O)(=O)c1ccc(N)cc1` [Example 29, (1S,5S)-(1-{5-[(4-Amino-benzenesulfonyl)-isobutyl-amino]-6-hydroxy-hexylcarbamoyl}-2-naphthalen-2-yl-ethyl)-carbamic Acid Methyl Ester], `CCCN[C@@H](Cc1ccc2ccccc2c1)C(=O)NCCCC[C@@H](CO)N(CC(C)C)S(=O)(=O)c1ccc(N)cc1` [Example 64, (2S,5S)-N-{5-[(4-Amino-benzenesulfonyl)-isobutyl-amino]-6-hydroxy-hexyl}-3-naphthalen-2-yl-2-propylamino-propionamide] is 3.8-fold higher in Ki: 1.2 nM for the first, 4.6 nM for the second.

Going from `CC(C)CN([C@H](CO)CCCCNC(=O)[C@H](Cc1ccc2ccccc2c1)NC(=O)C1CCCCC1)S(=O)(=O)c1ccc(N)cc1` [Example 42, (1S,5S)-Cyclohexanecarboxylic Acid (1-{5-[(4-Amino-benzenesulfonyl)-isobutyl-amino]-6-hydroxy-hexylcarbamoyl}-2-naphthalen-2-yl-ethyl)-amide] to `CC(C)CN([C@H](CO)CCCCNC(=O)[C@H](Cc1ccc2ccccc2c1)NC(=O)C1CCCC1)S(=O)(=O)c1ccc(N)cc1` [Example 60, (1S,5S)-Cyclopentanecarboxylic Acid (1-{5-[(4-Amino-benzenesulfonyl)-isobutyl-amino]-6-hydroxy-hexylcarbamoyl}-2-naphthalen-2-yl-ethyl)-amide], the Ki rises from 1.2 nM to 1.9 nM (1.6-fold). The first binds more tightly here.

`CC(C)CN([C@H](CO)CCCCNC(=O)[C@@H](N)Cc1ccc2ccccc2c1)S(=O)(=O)c1ccc(N)cc1` [Example 49, (2S,5S)-2-Amino-N-{5-[(4-amino-benzenesulfonyl)-isobutyl-amino]-6-hydroxy-hexyl}-3-naphthalen-2-yl-propionamide] and `COC(=O)N[C@@H](Cc1ccccc1-c1cccc(F)c1)C(=O)NCCCC[C@@H](CO)N(CC(C)C)S(=O)(=O)c1ccc(N)c(Cl)c1` [Example 57, (1S,5S)-[1-{5-[(4-Amino-3-chloro-benzenesulfonyl)-isobutyl-amino]-6-hydroxy-hexylcarbamoyl}-2-(3′-fluoro-biphenyl-2-yl)-ethyl]-carbamic Acid Methyl Ester] are within 1.5-fold of each other in Ki: 1.3 nM for the first, 1.7 nM for the second.
